In assay [1] the test system is Rat islets. Description: Insulin secretion and islet insulin content after streptozotocin exposure. Type of assay: cell-based, Sprague-Dawley rats. To be noted: 24 hours; for insulin content compared to islets incubated with STZ alone / insulin secretion compared to islets incubated with STZ alone: pre-incubated with KATP channel opener, then 0.5 mM STZ. The method, then:
(§1) Pancreata from Sprague-Dawley rats were collagenase digested and islets collected with a braking pipette as previously described (Sandler S et al., Endocrinology, 1987;121:1424-31). Islets were precultured free floating in RPMI 1640 medium with 10% (v/v) fetal calf serum (FCS) and 11 mM glucose for 3 days in 5% CO2 at 37° C. before experiments. Medium was changed two times during preculture. Islets were then transferred to sterile Petri dishes in KRBH (Krebs-Ringer bicarbonate with HEPES) medium with 2 mg/mL bovine serum albumin (BSA) and 5.6 mM glucose.
(§2) Stock solutions of test compounds dissolved in dimethyl sulphoxide were prepared and added to the Petri dishes. Islets were incubated in 5% CO2 at 37° C. for 30 minutes with or without test compounds and STZ in 0.9% NaCl was then added to a final concentration of 0.5 mM. Dry powder of alloxan was diluted to a stock of 50 mM just before the addition to the Petri dishes to a final concentration of 0.5 mM. The incubation continued for another 30 minutes and was terminated by the addition of 1 mL of cold KRBH. The islets were then washed twice in KRBH and studied for morphology and insulin secretion, or cultured for 2 or 24 hours in RPMI with 10% FCS and 11 mM glucose prior to morphological and biochemical examinations.
(§3) Triplicates of five islets were transferred to 200 μl of KRBH with 2 mg/mL BSA and 16.7 mM glucose and incubated for 60 minutes in 5% CO2 at 37° C. Islets from each condition were then pooled and sonicated in 200 μl of redestilled water. A 50 μl aliquot of the homogenate was mixed with 125 μl acid ethanol (0.18 M HCl in 95% ethanol) and insulin extracted overnight. Insulin concentration in the sonicate and the culture medium was determined with radioimmunoassay.

In assay [2] the test system is Rat islets. Description: Glucose oxidation after streptozotocin exposure. Type of assay: cell-based, Sprague-Dawley rats. Here is the method: as §1
(§4) Stock solutions of test compounds dissolved in dimethyl sulphoxide were prepared and added to the Petri dishes. Islets were incubated in 5% CO2 at 37° C. for 30 minutes with or without test compounds and STZ in 0.9% NaCl was then added to a final concentration of 0.5 mM. Dry powder of alloxan was diluted to a stock of 50 mM just before the addition to the Petri dishes to a final concentration of 0.5 mM. The incubation continued for another 30 minutes and was terminated by the addition of 1 mL of cold KRBH. […]
Groups of 10 islets were transferred to glass vials with 100 μl KRBH supplemented with D-[U^14C]glucose and nonradioactive glucose to a final concentration of 16.7 mM glucose. […] Scintillation fluid was then added to each flask and the radioactivity counted in a liquid scintillation counter.

Assay [3] deals with Rat islets. Description: Islet recovery after streptozotocin exposure. Type of assay: cell-based, Sprague-Dawley rats. The method, then:
as §1, §4
About 100 islets per condition were carefully transferred to a glass tube and spun down at 800 rpm for 1 minute. […] For estimation of islet recovery, 30 islets from each condition were transferred to Petri dishes as described above and the remaining islets counted after 24 hours.

In assay [4] the test system is Rat islets. Kind of assay: Proinsulin and total protein biosynthesis after streptozotocin exposure. Type of assay: cell-based, Sprague-Dawley rats. Here is the method: as §1, §2
For each condition duplicate samples of 20 islets were transferred to multiwell plates containing 100 μl KRBH with L-[4.5-^3H]leucine (50 μCi/ml), 2 mg/mL BSA and 16.7 mM glucose and incubated for 120 minutes in 5% C02 at 37° C. Islets were then washed in Hanks' solution supplemented with 10 mM nonradioactive leucine and subsequently sonicated in 200 μl of redestilled water. A 50 μl fraction of the aqueous homogenate was incubated for 90 minutes with insulin antibodies coupled to Sepharose beads to separate proinsulin from other labelled proteins (15). Total protein biosynthesis was obtained by precipitating the labelled proteins with trichloroacetic acid (TCA). The antibody bound and TCA precipitable radioactivity were determined in a liquid scintillation counter.

The subject of assay [5] is Rat islets. Description: Glucose oxidation after alloxan exposure. The conditions noted are these: for glucose oxidation rate, of control: islets treated with 0.5 mM alloxan in the presence of opener, 24 hours. Type of assay: cell-based, Sprague-Dawley rats. The method, then:
as §1, §2
Groups of 10 islets were transferred to glass vials with 100 μl KRBH supplemented with D-[U^14C]glucose and nonradioactive glucose to a final concentration of 16.7 mM glucose. Triplicate samples were used. The vials were suspended in scintillation flasks, gassed with 5% CO2 and sealed airtight. The flasks were then shaken for 90 minutes at 37° C. Metabolism was stopped by injection of 100 μl of 0.05 mM antimycin A into the center vial. Immediately thereafter 250 μl hyamine hydroxide was injected into the outer flask. CO2 was released from the incubation medium by injecting 100 μl of 0.4 M Na2HPO4 solution (pH 6.0) into the center vial. […] Scintillation fluid was then added to each flask and the radioactivity counted in a liquid scintillation counter.

For assay [6], the system named is Rat islets. Kind of assay: Insulin release after alloxan exposure. To be noted: for counteraction of alloxan-induced reduction of insulin release: 0.3 mM opener, simultaneous incubation with 0.5 mM alloxan. Type of assay: cell-based, Sprague-Dawley rats. Here is the method:
as §1, §2, §3

The next assay relates to ischemic heart. To be noted: Garlid KD et al., Circulation Res 1997; cited from earlier work.
Setting [7] is: remaining islets after STZ 0.5 mM.
Where [8] appears, read: recovered STZ islets at 24 hours.
[9] abbreviates: 0.3 mM test compound + 0.5 mM STZ.

The values below come from US20020032193A1, “Use of potassium channel openers for the treatment of insulitis” (priority 2000, published 2002).

For the molecule `CN(N=O)C(=O)N[C@H]1C(O)O[C@H](CO)[C@@H](O)[C@@H]1O` (mixture of isomers) [STZ, streptozotocin], in the assay on Rat islets [1] (setting [7]), the “insulin content, of control” value came to 50% and the “insulin secretion, of control” value is 60%. Also, the “rate of glucose oxidation, of control” value in the assay with Rat islets [2] (islets after STZ 0.5 mM, 24 hours) was 16%. In addition, the islet loss with Rat islets [3] (STZ 0.5 mM for 30 minutes, then 24 hours culture) was 40%. In the assay on Rat islets [4] (setting [8]), the “proinsulin biosynthesis, of control” value turned out to be 35% and the “total protein biosynthesis, of control” value was determined as 51%. Besides, the “proinsulin/total protein biosynthesis ratio” value in the assay on Rat islets [4] (recovered STZ islets at 24 hours, 23% in control islets) came to 15%. Further, the “insulin biosynthesis, of control” value in the assay on Rat islets [4] (remaining islets after STZ 0.5 mM, 24 hours) came out at 35%.
`CC(C)NC1=NS(=O)(=O)c2sc(Cl)cc2N1` [6-Chloro-3-isopropylamino-4H-thieno[3,2-e]-1,2,4-thiadiazine 1,1-dioxide]: in the assay with Rat islets [1], the “insulin content compared to islets incubated with STZ alone” value is recorded as “higher” and the “insulin secretion compared to islets incubated with STZ alone” value is on record as “higher”. For the same molecule, the “glucose oxidation rate, of control” value in the assay on Rat islets [5] is listed as “did not differ from control”. The “glucose oxidation rate compared to islets incubated with STZ alone” value in the assay on Rat islets [2] (setting [9]) is “higher”. Moreover, the islet loss result in the assay on Rat islets [3] (0.3 mM test compound preincubated 30 minutes + 0.5 mM STZ, 24 hours culture) is given as “no islet loss”. In addition, in the assay on Rat islets [6], the “counteraction of alloxan-induced reduction of insulin release” value is listed as “fully counteracted”. Further, the “insulin biosynthesis compared to islets incubated with STZ alone” value with Rat islets [4] (setting [9]) is given as “higher”.
Turning to `O=C1NC(=O)C(=O)C(=O)N1` [alloxan], the “decrease of glucose oxidation rate” value in the assay on Rat islets [5] (0.5 mM alloxan, after 24 hours) is recorded as 51%. Also, in the assay with Rat islets [6] (0.5 mM alloxan), the “reduction of insulin release” value worked out at 31%.
`CC1(C)Oc2ccc(C#N)cc2C(N2CCCC2=O)C1O` (stereo not drawn) [cromakalim]: in the assay on ischemic heart, the “effect in ischemic heart” value is listed as “beneficial, cardioprotective effect”.
Turning to `CC1=NS(=O)(=O)c2cc(Cl)ccc2N1` [diazoxide], in the assay on Rat islets [1], the “insulin content compared to islets incubated with STZ alone” value was “higher” and the “insulin secretion compared to islets incubated with STZ alone” value was “higher”. Further, the “glucose oxidation rate, of control” value in the assay with Rat islets [5] is on record as 73%. Also, the “effect in ischemic heart” value with ischemic heart is on record as “beneficial, cardioprotective effect”. The “counteraction of alloxan-induced reduction of insulin release” value in the assay with Rat islets [6] is on record as “fully counteracted”.
For the molecule `CC(N/C(=N\C#N)Nc1ccncc1)C(C)(C)C` (stereo not drawn) [pinacidil], in the assay with ischemic heart, the “effect in ischemic heart” value was “beneficial, cardioprotective effect”.
